What all share (type): functional
The test system of test [1] is Klebsiella pneumoniae. The test is described as follows: microbe, parasite or virus in culture. The conditions noted are these: Klebsiella pneumoniae; read-out: MIC.
Description: Antibacterial activity against Klebsiella pneumoniae 1082E
The test system of test [2] is Enterobacter cloacae. In words: Antibacterial activity against Enterobacter cloacae EB5. The conditions noted are these: Enterobacter cloacae; read-out: MIC.
For test [3], the system named is Escherichia coli. The test is described as follows: Antibacterial activity against Escherichia coli TEM.
Test [4] concerns Staphylococcus aureus. In words: Antibacterial activity against penicillin G susceptible Staphylococcus aureus. The conditions noted are these: Staphylococcus aureus; read-out: MIC.
In test [5] the test system is Escherichia coli. In words: Antibacterial activity against Escherichia coli EC14. As to conditions: Escherichia coli; read-out: MIC.
The next test deals with Streptococcus pneumoniae. The test is described as follows: Antibacterial activity against Streptococcus pneumoniae.
For test [6], the system named is Enterobacter cloacae. The test is described as follows: Antibacterial activity against Enterobacter cloacae 265A. The conditions noted are these: Enterobacter cloacae; read-out: MIC.
The next test relates to Streptococcus pyogenes. The test is described as follows: Antibacterial activity against Streptococcus pyogenes.
For test [7], the system named is Pseudomonas aeruginosa. In words: Antibacterial activity against Pseudomonas aeruginosa PS18. As to conditions: Pseudomonas aeruginosa; read-out: MIC.
For test [8], the system named is Staphylococcus aureus. The test is described as follows: Antibacterial activity against penicillin G resistance Staphylococcus aureus. As to conditions: Staphylococcus aureus; read-out: MIC.
Test [9] concerns Klebsiella pneumoniae. The test is described as follows: Antibacterial activity against Klebsiella pneumoniae X26.
The test system of the next test is Enterococcus faecium. In words: Antibacterial activity against Enterococcus faecium. The conditions noted are these: Enterococcus faecium; read-out: MIC.
Test [10] has as its system Pseudomonas aeruginosa. The test is described as follows: Antibacterial activity against Pseudomonas aeruginosa X528. The conditions noted are these: Pseudomonas aeruginosa; read-out: MIC.
For a further test, the system named is Serratia marcescens. In words: Antibacterial activity against Serratia marcescens SE3. The conditions noted are these: Serratia marcescens; read-out: MIC.
Test [11] deals with Staphylococcus aureus. In words: In vivo efficacy against Staphylococcus aureus infected mice treated at 1 hr and 5 hr post infection.
The test system of test [12] is Escherichia coli. The test is described as follows: In vivo efficacy against Escherichia coli infected mice treated at 1 hr and 5 hr post infection.
In test [13] the test system is Pseudomonas aeruginosa. In words: In vivo efficacy against Pseudomonas aeruginosa infected mice treated at 1 hr and 5 hr post infection.
Where [14] appears, read: Escherichia coli, read-out: MIC.
[15] abbreviates: Streptococcus pneumoniae, read-out: MIC.
Where [16] appears, read: Streptococcus pyogenes, read-out: MIC.
[17] abbreviates: Klebsiella pneumoniae, read-out: MIC.

Values after ≈ are worked out from the molar mass of the structure shown. A value given as a limit tells only on which side of the number the result lay.

For the compound `CO/N=C(\C(=O)N[C@@H]1C(=O)N2C(C(=O)[O-])=C(C[n+]3ccc(Cl)cc3)CS[C@H]12)c1csc(N)n1`, the MIC amounted to 16 µg/mL (≈ 31.4 µM) in the test with Klebsiella pneumoniae [1]; 0.25 µg/mL (≈ 0.491 µM) in the test with Enterobacter cloacae [2]; 0.03 µg/mL (≈ 0.0589 µM) with Escherichia coli [3] (setting [14]); 2 µg/mL (≈ 3.93 µM) in the test with Staphylococcus aureus [4]; 0.06 µg/mL (≈ 0.118 µM) in the test with Escherichia coli [5]; 0.03 µg/mL (≈ 0.0589 µM) with Streptococcus pneumoniae (setting [15]). Moreover, the MIC in the test with Enterobacter cloacae [6] is 32 µg/mL (≈ 62.9 µM); in the test on Streptococcus pyogenes (setting [16]) it was 0.015 µg/mL (≈ 0.0295 µM); in the test on Pseudomonas aeruginosa [7], 16 µg/mL (≈ 31.4 µM); in the test on Staphylococcus aureus [8], 4 µg/mL (≈ 7.86 µM); in the test on Klebsiella pneumoniae [9] (setting [17]) it was 0.03 µg/mL (≈ 0.0589 µM); in the test with Enterococcus faecium, over 128 µg/mL. The MIC with Pseudomonas aeruginosa [10] amounted to 4 µg/mL (≈ 7.86 µM); in the test on Serratia marcescens, 0.25 µg/mL (≈ 0.491 µM).

With `CO/N=C(\C(=O)N[C@@H]1C(=O)N2C(C(=O)[O-])=C(C[n+]3csc(CCOC(C)=O)c3C)CS[C@H]12)c1csc(N)n1`, the MIC turned out to be 8 µg/mL (≈ 13.8 µM) in the test on Klebsiella pneumoniae [1]; 0.125 µg/mL (≈ 0.215 µM) in the test with Enterobacter cloacae [2]; 0.03 µg/mL (≈ 0.0517 µM) with Escherichia coli [3] (setting [14]); 2 µg/mL (≈ 3.44 µM) in the test on Staphylococcus aureus [4]; 0.03 µg/mL (≈ 0.0517 µM) in the test on Escherichia coli [5]; 0.015 µg/mL (≈ 0.0258 µM) in the test on Streptococcus pneumoniae (setting [15]). Also, the MIC stood at 2 µg/mL (≈ 3.44 µM) in the test with Enterobacter cloacae [6]; 0.015 µg/mL (≈ 0.0258 µM) with Streptococcus pyogenes (setting [16]); 64 µg/mL (≈ 110 µM) with Pseudomonas aeruginosa [7]; 4 µg/mL (≈ 6.89 µM) with Staphylococcus aureus [8]; 0.015 µg/mL (≈ 0.0258 µM) in the test on Klebsiella pneumoniae [9] (setting [17]); 32 µg/mL (≈ 55.1 µM) in the test with Enterococcus faecium. The MIC came to 32 µg/mL (≈ 55.1 µM) with Pseudomonas aeruginosa [10] and 0.125 µg/mL (≈ 0.215 µM) in the test with Serratia marcescens.

Consider `CO/N=C(\C(=O)N[C@@H]1C(=O)N2C(C(=O)[O-])=C(C[n+]3cccc4c3CCCC4)CS[C@H]12)c1csc(N)n1` [CEFQUINOME], for which the MIC in the test on Klebsiella pneumoniae [1] stood at 4 µg/mL (≈ 7.57 µM); with Enterobacter cloacae [2] it was 0.125 µg/mL (≈ 0.236 µM); with Escherichia coli [3] (setting [14]), 0.03 µg/mL (≈ 0.0568 µM); with Staphylococcus aureus [4] it was 1 µg/mL (≈ 1.89 µM); in the test with Escherichia coli [5], 0.03 µg/mL (≈ 0.0568 µM); with Streptococcus pneumoniae (setting [15]), 0.015 µg/mL (≈ 0.0284 µM). Moreover, the MIC with Enterobacter cloacae [6] was 2 µg/mL (≈ 3.78 µM); in the test on Streptococcus pyogenes (setting [16]) it was under 0.008 µg/mL; in the test with Pseudomonas aeruginosa [7] it was 16 µg/mL (≈ 30.3 µM); in the test with Staphylococcus aureus [8] it was 2 µg/mL (≈ 3.78 µM); with Klebsiella pneumoniae [9] (setting [17]) it was 0.03 µg/mL (≈ 0.0568 µM); with Enterococcus faecium, 128 µg/mL (≈ 242 µM). In addition, the results for the MIC with Pseudomonas aeruginosa [10] and in the test with Serratia marcescens were 4 µg/mL (≈ 7.57 µM) and 0.125 µg/mL (≈ 0.236 µM), respectively.

Regarding `CO/N=C(\C(=O)N[C@@H]1C(=O)N2C(C(=O)[O-])=C(C[n+]3ccc4ccoc4c3)CS[C@H]12)c1csc(N)n1`, the MIC in the test with Klebsiella pneumoniae [1] stood at 4 µg/mL (≈ 7.77 µM); in the test with Enterobacter cloacae [2] it was 0.06 µg/mL (≈ 0.117 µM); with Escherichia coli [3] (setting [14]) it was 0.015 µg/mL (≈ 0.0292 µM); in the test with Staphylococcus aureus [4], 1 µg/mL (≈ 1.94 µM); with Escherichia coli [5] it was 0.015 µg/mL (≈ 0.0292 µM); in the test with Streptococcus pneumoniae (setting [15]), 0.015 µg/mL (≈ 0.0292 µM). Moreover, the MIC in the test on Enterobacter cloacae [6] was 8 µg/mL (≈ 15.5 µM); in the test with Streptococcus pyogenes (setting [16]) it was under 0.008 µg/mL; in the test on Pseudomonas aeruginosa [7] it was 8 µg/mL (≈ 15.5 µM); in the test with Staphylococcus aureus [8] it was 8 µg/mL (≈ 15.5 µM); with Klebsiella pneumoniae [9] (setting [17]), 0.015 µg/mL (≈ 0.0292 µM); with Enterococcus faecium, over 128 µg/mL. For the same compound, the MIC was 2 µg/mL (≈ 3.89 µM) with Pseudomonas aeruginosa [10] and 0.03 µg/mL (≈ 0.0583 µM) in the test on Serratia marcescens.

With `CO/N=C(\C(=O)N[C@@H]1C(=O)N2C(C(=O)[O-])=C(C[n+]3ccc(CC(=O)NO)cc3)CS[C@H]12)c1csc(N)n1` (stereo in doubt; 10), the MIC with Escherichia coli [3] was 0.25 µg/mL (≈ 0.457 µM); against Klebsiella pneumoniae [9], 0.03 µg/mL (≈ 0.0548 µM). Further, the median effective dose (ED50) (commonly the midpoint of the dose-response relation) in the test with Staphylococcus aureus [11] is 7.2 mg/kg.

For `CO/N=C(\C(=O)N[C@@H]1C(=O)N2C(C(=O)[O-])=C(C[n+]3ccc(CC(=O)NO)cc3)CS[C@H]12)c1csc(N)n1` (stereo in doubt; 7), the MIC against Streptococcus pneumoniae amounted to 0.015 µg/mL (≈ 0.0274 µM). Also, the ED50 in the test on Escherichia coli [12] came to 0.04 mg/kg; with Staphylococcus aureus [11], 1.5 mg/kg; in the test on Pseudomonas aeruginosa [13], 19.6 mg/kg.

In the case of `CO/N=C(\C(=O)N[C@@H]1C(=O)N2C(C(=O)[O-])=C(C[n+]3ccc4c(S(=O)(=O)O)cccc4c3)CS[C@H]12)c1csc(N)n1`, the MIC with Klebsiella pneumoniae [1] came out at 32 µg/mL (≈ 52.9 µM); with Enterobacter cloacae [2], 0.25 µg/mL (≈ 0.413 µM); in the test on Escherichia coli [3] (setting [14]), 0.03 µg/mL (≈ 0.0496 µM); in the test on Staphylococcus aureus [4], 4 µg/mL (≈ 6.62 µM); in the test on Escherichia coli [5], 0.015 µg/mL (≈ 0.0248 µM); with Streptococcus pneumoniae (setting [15]), 0.015 µg/mL (≈ 0.0248 µM). Moreover, the MIC with Enterobacter cloacae [6] is 64 µg/mL (≈ 106 µM); in the test on Streptococcus pyogenes, 0.015 µg/mL (≈ 0.0248 µM); with Pseudomonas aeruginosa [7] it was 16 µg/mL (≈ 26.5 µM); with Staphylococcus aureus [8], 8 µg/mL (≈ 13.2 µM); in the test with Klebsiella pneumoniae [9] (setting [17]), 0.03 µg/mL (≈ 0.0496 µM); in the test on Enterococcus faecium it was over 128 µg/mL. Also, the MIC with Pseudomonas aeruginosa [10] amounted to 32 µg/mL (≈ 52.9 µM); with Serratia marcescens it was 0.25 µg/mL (≈ 0.413 µM).

For the origin of these results see ChEMBL document CHEMBL1124865, “Synthesis and biological evaluation of a series of parenteral 3'-quaternary ammonium cephalosporins” (J Med Chem, 1990).
